Like-named read-outs stand apart in the source and are kept apart here.
Target: T1, Human M4 (Homo sapiens, UniProt P08173)
T1 construct: expressed in transfected cells
T1 sequence (P08173 1-479): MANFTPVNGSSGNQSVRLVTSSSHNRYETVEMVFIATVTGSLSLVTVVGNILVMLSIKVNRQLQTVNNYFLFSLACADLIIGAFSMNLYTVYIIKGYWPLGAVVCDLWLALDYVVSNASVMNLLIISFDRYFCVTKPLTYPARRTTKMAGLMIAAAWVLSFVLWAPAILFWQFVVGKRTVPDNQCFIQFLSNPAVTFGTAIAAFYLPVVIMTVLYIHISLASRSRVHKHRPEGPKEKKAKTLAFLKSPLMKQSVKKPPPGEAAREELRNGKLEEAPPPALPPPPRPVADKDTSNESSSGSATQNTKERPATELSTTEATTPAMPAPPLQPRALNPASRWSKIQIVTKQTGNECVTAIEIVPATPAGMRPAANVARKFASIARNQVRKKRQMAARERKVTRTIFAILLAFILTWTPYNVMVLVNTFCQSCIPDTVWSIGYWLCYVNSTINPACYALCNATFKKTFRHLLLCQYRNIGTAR
Experiment: mAChR M4 cell-based functional assay (calcium flux, potentiation of EC20 acetylcholine response), hM4-Gqi5 CHO-K1 cells
Conditions: for Emax at 30 µM: CHO-K1, % ACh maximum at 30 μM; for EC50: calcium flux, read-out: Human M4 EC50
Summary of the method: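 Positive allosteric modulation was scored as a concentration-dependent rise in the response to an EC20 dose of acetylcholine, added 144 s after the compound. Human M4-Gqi5 CHO-K1 cells carried Fluo-4 dye, and compounds ran as 11-point, 3-fold dilution series. EC50 and Emax came from four-parameter logistic fits of the FDSS fluorescence-ratio traces.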

[1] = hM4-Gqi5 CHO-K1 cells, PAM of EC20 acetylcholine
[2] = Table 3, Human M4, read-out: Emax (% ACh maximum at 30 μM)
[3] = Table 3, potentiation of EC20 acetylcholine response, CHO-K1 cells
[4] = Table 4, Human M4, read-out: Emax (% ACh maximum at 30 μM)
[5] = Table 4, potentiation of EC20 acetylcholine response, CHO-K1 cells

SMILES | Emax at 30 µM (human M4, read-out: Emax) [%] | EC50 [1] [nM] | Emax at 30 µM [2] [%] | EC50 [3] [nM] | further results
Cc1cc2nccn2nc1N1CCc2ncc(-c3c(C)cnn3C)cc2C1 [Compound 136, 3-(2,4-dimethylpyrazol-3-yl)-6-(7-methylimidazo[1,2-b]pyridazin-6-yl)-7,8-dihydro-5H-1,6-naphthyridine] | 66 | 1200 | – | – | –
Cc1cc2nncn2nc1N1CCc2ncc(-c3c(C)nn(C)c3C)cc2C1 [Compound 104, 6-(7-methyl-[1,2,4]triazolo[4,3-b]pyridazin-6-yl)-3-(1,3,5-trimethylpyrazol-4-yl)-7,8-dihydro-5H-1,6-naphthyridine] | 91 | 398 | – | – | –
Cc1cc2nnc(C(F)(F)F)n2nc1N1CCc2ncc(N3CCCn4nccc43)cc2C1 [Compound 325, 3-(6,7-dihydropyrazolo[1,5-a]pyrimidin-4(5H)-yl)-6-(7-methyl-3-(trifluoromethyl)-[1,2,4]triazolo[4,3-b]pyridazin-6-yl)-5,6,7,8-tetrahydro-1,6-naphthyridine] | – | – | – | – | Emax at 30 µM [4]: 116%; EC50 [5]: 50 nM
Cc1c(N2CCc3ncc(Nc4cccc(Cl)c4F)cc3C2)nn2cnnc2c1C [Compound 67, N-(3-chloro-2-fluoro-phenyl)-6-(7,8-dimethyl-[1,2,4]triazolo[4,3-b]pyridazin-6-yl)-7,8-dihydro-5H-1,6-naphthyridin-3-amine] | 86 | 219 | – | – | –
Cc1cnccc1Nc1cnc2c(c1)CN(c1nn3cnnc3cc1C)CC2 [Compound 364, 6-(7-methyl-[1,2,4]triazolo[4,3-b]pyridazin-6-yl)-N-(3-methylpyridin-4-yl)-5,6,7,8-tetrahydro-1,6-naphthyridin-3-amine] | – | – | – | – | Emax at 30 µM [4]: 83%; EC50 [5]: 2500 nM
Cc1c(N2CCc3ncc(-c4ccc(-n5ccnc5)nc4)cc3C2)nn2cnnc2c1C [Compound 192, 3-(6-(1H-imidazol-1-yl)pyridin-3-yl)-6-(7,8-dimethyl-[1,2,4]triazolo[4,3-b]pyridazin-6-yl)-5,6,7,8-tetrahydro-1,6-naphthyridine] | – | – | 72 | 281 | –
Cc1cc2nnc(C(F)(F)F)n2nc1N1CCc2ncc(N3CCOC(c4cccnc4)C3)cc2C1 (centres unmarked) [Compound 329, 4-(6-(7-methyl-3-(trifluoromethyl)-[1,2,4]triazolo[4,3-b]pyridazin-6-yl)-5,6,7,8-tetrahydro-1,6-naphthyridin-3-yl)-2-(pyridin-3-yl)morpholine] | – | – | – | – | Emax at 30 µM [4]: 80%; EC50 [5]: 1490 nM
Cc1c(N2CCc3ncc(N4CCCCC4)cc3C2)nn2cnnc2c1C [Compound 16, 6-(7,8-dimethyl-[1,2,4]triazolo[4,3-b]pyridazin-6-yl)-3-(1-piperidyl)-7,8-dihydro-5H-1,6-naphthyridine] | 89 | 789 | – | – | –
Cc1c(N2CCc3ncc(-c4ccc(N5CCN(C)CC5)cc4)cc3C2)nn2cnnc2c1C [Compound 224, 6-(7,8-dimethyl-[1,2,4]triazolo[4,3-b]pyridazin-6-yl)-3-(4-(4-methylpiperazin-1-yl)phenyl)-5,6,7,8-tetrahydro-1,6-naphthyridine] | – | – | 100 | 581 | –
COCc1c(N2CCc3ncc(C(F)(F)F)cc3C2)nn2cnnc2c1C [Compound 349, 6-(7-(Methoxymethyl)-8-methyl-[1,2,4]triazolo[4,3-b]pyridazin-6-yl)-3-(trifluoromethyl)-5,6,7,8-tetrahydro-1,6-naphthyridine] | – | – | – | – | Emax at 30 µM [4]: 106%; EC50 [5]: 93 nM
Cc1c(N2CCc3ncc(-c4cccnc4OC(C)C)cc3C2)nn2cnnc2c1C [Compound 182, 6-(7,8-dimethyl-[1,2,4]triazolo[4,3-b]pyridazin-6-yl)-3-(2-isopropoxypyridin-3-yl)-5,6,7,8-tetrahydro-1,6-naphthyridine] | – | – | 42 | 1100 | –
Cc1cnc2c(c1)CN(c1nn3cc(C(=O)N4CCOCC4)nc3cc1C)CC2 [Compound 162, (7-methyl-6-(3-methyl-7,8-dihydro-1,6-naphthyridin-6(5H)-yl)imidazo[1,2-b]pyridazin-2-yl)(morpholino)methanone] | – | – | 105 | 846 | –
[2H]c1nnc2c(C)c(C)c(N3CCc4ncc(-c5cnn(CC6CC6)c5)cc4C3)nn12 [Compound 77, 3-[1-(cyclopropylmethyl)pyrazol-4-yl]-6-(3-deuterio-7,8-dimethyl-[1,2,4]triazolo[4,3-b]pyridazin-6-yl)-7,8-dihydro-5H-1,6-naphthyridine] | 89 | 216 | – | – | –
Cc1c(N2CCc3ncc(-c4ccc(-n5cccn5)nc4)cc3C2)nn2cnnc2c1C [Compound 191, 3-(6-(1H-pyrazol-1-yl)pyridin-3-yl)-6-(7,8-dimethyl-[1,2,4]triazolo[4,3-b]pyridazin-6-yl)-5,6,7,8-tetrahydro-1,6-naphthyridine] | – | – | 66 | 342 | –
Cc1cc2nncn2nc1N1CCc2ncc(N3CCN(C)C(=O)C3)cc2C1 [Compound 332, 1-methyl-4-(6-(7-methyl-[1,2,4]triazolo[4,3-b]pyridazin-6-yl)-5,6,7,8-tetrahydro-1,6-naphthyridin-3-yl)piperazin-2-one] | – | – | – | – | Emax at 30 µM [4]: 71%; EC50 [5]: 2590 nM
COc1ccc(Oc2cnc3c(c2)CN(c2nn4cnnc4c(C)c2C)CC3)cc1 [Compound 12, 6-(7,8-Dimethyl-[1,2,4]triazolo[4,3-b]pyridazin-6-yl)-3-(4-methoxyphenoxy)-7,8-dihydro-5H-1,6-naphthyridine] | 76 | 191 | – | – | –
Cc1c(N2CCc3ncc(-c4ccc(N5CC6(C5)CC(F)(F)C6)nc4)cc3C2)nn2cnnc2c1C [Compound 208, 3-(6-(6,6-difluoro-2-azaspiro[3.3]heptan-2-yl)pyridin-3-yl)-6-(7,8-dimethyl-[1,2,4]triazolo[4,3-b]pyridazin-6-yl)-5,6,7,8-tetrahydro-1,6-naphthyridine] | – | – | 96 | 463 | –

More lines, main results first:

Emax at 30 µM (human M4, read-out: Emax) [%] | EC50 [1] [nM] | Emax at 30 µM [2] [%] | EC50 [3] [nM] | SMILES | further results
93 | 231 | – | – | COc1ccc(Nc2cnc3c(c2)CN(c2nn4cnnc4c(C)c2C)CC3)c(F)c1 [Compound 28, 6-(7,8-dimethyl-[1,2,4]triazolo[4,3-b]pyridazin-6-yl)-N-(2-fluoro-4-methoxy-phenyl)-7,8-dihydro-5H-1,6-naphthyridin-3-amine] | –
– | – | 81 | 906 | Cc1c(N2CCc3ncc(C(C)(C)O)cc3C2)nn2c(C(F)(F)F)nnc2c1C [Compound 219, 2-(6-(7,8-dimethyl-3-(trifluoromethyl)-[1,2,4]triazolo[4,3-b]pyridazin-6-yl)-5,6,7,8-tetrahydro-1,6-naphthyridin-3-yl)propan-2-ol] | –
85 | 295 | – | – | Cc1c(N2CCc3ncc(-c4ccc(C(F)(F)F)nc4)cc3C2)nn2cnnc2c1C [Compound 36, 6-(7,8-dimethyl-[1,2,4]triazolo[4,3-b]pyridazin-6-yl)-3-[6-(trifluoromethyl)-3-pyridyl]-7,8-dihydro-5H-1,6-naphthyridine] | –
– | – | 83 | 169 | Cc1c(N2CCc3ncc(-c4ccnn4C)cc3C2)nn2c(C(F)(F)F)nnc2c1C [Compound 251, 6-(7,8-dimethyl-3-(trifluoromethyl)-[1,2,4]triazolo[4,3-b]pyridazin-6-yl)-3-(1-methyl-1H-pyrazol-5-yl)-5,6,7,8-tetrahydro-1,6-naphthyridine] | –
71 | 271 | – | – | Cc1c(N2CCc3ncc(Nc4cc(Cl)c(F)cc4F)cc3C2)nn2cnnc2c1C [Compound 45, N-(5-chloro-2,4-difluoro-phenyl)-6-(7,8-dimethyl-[1,2,4]triazolo[4,3-b]pyridazin-6-yl)-7,8-dihydro-5H-1,6-naphthyridin-3-amine] | –
– | – | 109 | 379 | Cc1cc2nnc(C(F)(F)F)n2nc1N1CCc2ncc(Oc3cc(F)ccc3F)cc2C1 [Compound 298, 3-(2,5-difluorophenoxy)-6-(7-methyl-3-(trifluoromethyl)-[1,2,4]triazolo[4,3-b]pyridazin-6-yl)-5,6,7,8-tetrahydro-1,6-naphthyridine] | –
88 | 455 | – | – | COc1cc(F)c(Nc2cnc3c(c2)CN(c2nn4cnnc4c(C)c2C)CC3)c(F)c1 [Compound 31, N-(2,6-difluoro-4-methoxy-phenyl)-6-(7,8-dimethyl-[1,2,4]triazolo[4,3-b]pyridazin-6-yl)-7,8-dihydro-5H-1,6-naphthyridin-3-amine] | –
– | – | 65 | 1210 | Cc1c(N2CCc3ncc(-c4ccc(N5CC[C@@H](F)C5)nc4)cc3C2)nn2c(C(F)(F)F)nnc2c1C [Compound 249, (R)-6-(7,8-dimethyl-3-(trifluoromethyl)-[1,2,4]triazolo[4,3-b]pyridazin-6-yl)-3-(6-(3-fluoropyrrolidin-1-yl)pyridin-3-yl)-5,6,7,8-tetrahydro-1,6-naphthyridine] | –

Source: patent US20250002507A1, “7,8-DIHYDRO-5H-1,6-NAPHTHYRIDINE DERIVATIVES AS POSITIVE ALLOSTERIC MODULATORS OF THE MUSCARINIC ACETYLCHOLINE RECEPTOR M4 FOR TREATING NEUROLOGICAL AND PSYCHIATRIC DISORDERS” (Vanderbilt University, priority 2021, published 2025)
